Assay results taken from patent publication US5977386A, “6-thio-substituted paclitaxels” (Bristol-Myers Squibb Company, priority 1997, dated 1999).
Read-outs that look alike come from different tables or passages of the source.

Experiments:
[1] = test system: HCT-116 human colon carcinoma cells; test: MTS cytotoxicity assay (72 h exposure); assay type: cell-based
Method: Cytoxicity was assessed in HCT-116 human colon carcinoma cells by MTS (3-(4,5-dimethylthiazol-2-yl)-5-(3-carboxymethoxyphenyl)-2-(4-sulphenyl)-2H-tetrazolium, inner salt) assay as reported in T. L. Riss, et. al., "Comparison of MTT, XTT, and a novel tetrazolium compound MTS for in vitro proliferation and chemosensitivity assays.," Mol. Biol. Cell 3 (Suppl.):184a, 1992. Cells were plated at 4,000 cell/well in 96 well microtiter plates and 24 hours later drugs were added and serial diluted. The cells were incubated at 37° for 72 hours at which time the tetrazolium dye, MTS at 333 μg/ml (final concentration), in combination with the electron coupling agent phenazine methosulfate at 25 μM (final concentration) was added. A dehydrogenase enzyme in live cells reduces the MTS to a form that absorbs light at […] which can be quantitated spectrophotometrically. The greater the absorbance the greater the number of live cells. The results are expressed as an IC50, which is the drug concentration required to inhibit cell proliferation (i.e. absorbance at 450 nm) to 50% of that of untreated control cells. The IC50 values for compounds evaluated in this assay are evaluated in Table I.
^1 Cytotoxicity was determined after a 72 h exposure by MTS assay.

M5076 murine sarcoma = test: sc M5076 murine sarcoma model, tumor growth delay; assay type: in vivo; settings: sc M5076, iv on days 1, 3, 5, 7, and 9 post-implant, at optimal dose
Method: M5076: Taxane derivatives were tested in the M5076 murine sarcoma model using the general materials and methods described by Rose, W. C. in Anticancer Research 6: 557-562, 1986, for subcutaneous M5076 implants, with the following modifications: treatments were administered intravenously on Days 1, 3, 5, 7, and 9 post-tumor implant using eight mice per treatment and untreated control group. Activity was determined based on an increase in lifespan (as described in the preceding reference) of […], and, in particular, on a delay in tumor growth equivalent to at least 1 gross log cell kill (LCK). The latter was calculated as described in Rose, W. C. and Basler, G. A. in In Vivo 4: 391-396, 1990.
(§1) ^a Optimal dose (mg/kg/inj) if active, otherwise, maximal tolerated
(§2) dose (MTD) or highest dose tested.

M109 lung carcinoma = test: Mice M109 Model (In-Vivo), ip M109 lung carcinoma, median survival; design: species or system mouse; settings: ip M109, Balb/c×DBA/2 F1 mice, ip injections days 5 and 8 post-implant, at optimal dose
Method: Balb/c×DBA/2 F1 hybrid mice were implanted intraperitoneally, as described by William Rose in Evaluation of Madison 109 Lung Carcinoma as a Model for Screening Antitumor Drugs, Cancer Treatment Reports, 65, No. 3-4 (1981), with 0.5 mL of a 2% (w/v) brei of M109 lung carcinoma.
Mice were treated with compounds under study by receiving intraperitoneal injections of various doses on days 5 and 8 post-implant. Mice were followed daily for survival until approximately 75 days post-tumor implant. One group of mice per experiment remained untreated and served as the control group.
Median survival times of compound-treated (T) mice were compared to the median survival time of the control (C) mice. The ratio of the two values for each compound-treated group of mice was multiplied by 100 and expressed as a percentage (i.e. % T/C) in the following Table II for representative compounds.
as §1, §2

[2] = Homo sapiens, HCT-116, 72 h, read-out: Cytotoxicity Assay IC50 against HCT 116 Human colon tumor cell line
[3] = Homo sapiens, HCT-116, read-out: Cytotoxicity Assay IC50 against HCT 116 Human colon tumor cell line

| SMILES | IC50 [1, 2] | Maximum T-C in LCK (gross log cell kill) (M5076 murine sarcoma) | IC50 [1, 3] | Maximum % T/C (ratio of median survival times treated/control x 100) (M109 lung carcinoma) | IC50 ([1]; 4320 min, read-out: Cytotoxicity Assay IC50 against HCT 116 Human colon tumor cell line) |
| --- | --- | --- | --- | --- | --- |
| C=CS[C@@H]1C[C@@]2(C)C(=O)[C@H](OC(C)=O)C3=C(C)[C@@H](OC(=O)[C@H](O)[C@@H](NC(=O)c4ccccc4)c4ccccc4)C[C@@](O)([C@@H](OC(=O)c4ccccc4)[C@@H]2[C@]2(OC(C)=O)CO[C@H]12)C3(C)C [Compound 50, 6b-thioethenyl-7-deoxypaclitaxel] | 0.3 nM | 1.0 LCK | – | – | – |
| CCOC(=O)N[C@@H](c1ccccc1)[C@@H](O)C(=O)O[C@H]1C[C@@]2(O)[C@@H](OC(=O)c3ccccc3)[C@@H]3[C@]4(OC(C)=O)CO[C@@H]4[C@H](SC)C[C@@]3(C)C(=O)[C@H](OC(C)=O)C(=C1C)C2(C)C [Compound 28, 3'-NH-ethylcarbonate-7-deoxy-6b-thiomethylpaclitaxel] | 0.7 nM | 1.1 LCK | – | – | – |
| CC(=O)O[C@H]1C(=O)[C@]2(C)C[C@@H](S)[C@H]3OC[C@@]3(OC(C)=O)[C@H]2[C@H](OC(=O)c2ccccc2)[C@]2(O)C[C@H](OC(=O)[C@H](O)[C@@H](NC(=O)c3ccccc3)c3ccccc3)C(C)=C1C2(C)C [Compound 13, 7-deoxy-6β-thio-paclitaxel] | – | 0.5 LCK | 26.1 nM | – | – |
| CC(=O)O[C@H]1C(=O)[C@]2(C)C[C@@H](SCCO)[C@H]3OC[C@@]3(OC(C)=O)[C@H]2[C@H](OC(=O)c2ccccc2)[C@]2(O)C[C@H](OC(=O)[C@H](O)[C@@H](NC(=O)c3ccccc3)c3ccccc3)C(C)=C1C2(C)C [Compound 15, 7-deoxy-6β-(2-hydroxyethyl)thio-paclitaxel] | – | 0.3 LCK | 1.8 nM | – | – |
| CC(=O)O[C@H]1C(=O)[C@]2(C)C[C@@H](Sc3ccccc3)[C@H]3OC[C@@]3(OC(C)=O)[C@H]2[C@H](OC(=O)c2ccccc2)[C@]2(O)C[C@H](OC(=O)[C@H](O)[C@@H](NC(=O)c3ccccc3)c3ccccc3)C(C)=C1C2(C)C [Compound 52, 6b-thiophenyl-7-deoxy-paclitaxel] | 0.58 nM | – | – | 114% | – |
| CC(=O)O[C@H]1C(=O)[C@]2(C)C[C@@H]([S+](C)[O-])[C@H]3OC[C@@]3(OC(C)=O)[C@H]2[C@H](OC(=O)c2ccccc2)[C@]2(O)C[C@H](OC(=O)[C@H](O)[C@@H](NC(=O)OC(C)(C)C)c3ccccc3)C(C)=C1C2(C)C (single isomer, unassigned) [Compound 26, 3'-NH-Boc-7-deoxy-6b-methylsulfoxidepaclitaxel] | 0.66 nM | – | – | – | – |
| CC(=O)O[C@H]1C(=O)[C@]2(C)C[C@@H]([S+]([O-])CC#N)[C@H]3OC[C@@]3(OC(C)=O)[C@H]2[C@H](OC(=O)c2ccccc2)[C@]2(O)C[C@H](OC(=O)[C@H](O)[C@@H](NC(=O)c3ccccc3)c3ccccc3)C(C)=C1C2(C)C (single isomer, unassigned) [Compound 38, 6b-cyanomethylsulfoxo-7-deoxypaclitaxel] | 28 nM | 0 LCK | – | – | – |
| CC(=O)O[C@H]1C(=O)[C@]2(C)C[C@@H](SCC#N)[C@H]3OC[C@@]3(OC(C)=O)[C@H]2[C@H](OC(=O)c2ccccc2)[C@]2(O)C[C@H](OC(=O)[C@H](O)[C@@H](NC(=O)c3ccccc3)c3ccccc3)C(C)=C1C2(C)C [Compound 36, 6b-thioacetonitrile-7-deoxypaclitaxel] | 4.4 nM | 1.1 LCK | – | – | – |
| COC(=O)CS[C@@H]1C[C@@]2(C)C(=O)[C@H](OC(C)=O)C3=C(C)[C@@H](OC(=O)[C@H](O)[C@@H](NC(=O)c4ccccc4)c4ccccc4)C[C@@](O)([C@@H](OC(=O)c4ccccc4)[C@@H]2[C@]2(OC(C)=O)CO[C@H]12)C3(C)C [Compound 40, 6b-thioacetyl methyl ester-7-deoxypaclitaxel] | 2.5 nM | – | – | 103% | – |
| CCS[C@@H]1C[C@@]2(C)C(=O)[C@H](OC(C)=O)C3=C(C)[C@@H](OC(=O)[C@H](O)[C@@H](NC(=O)c4ccccc4)c4ccccc4)C[C@@](O)([C@@H](OC(=O)c4ccccc4)[C@@H]2[C@]2(OC(C)=O)CO[C@H]12)C3(C)C [Compound 30, 7-deoxy-6b-thioethylpaclitaxel] | 0.9 nM | 0.4 LCK | – | – | – |
| CS[C@@H]1C[C@@]2(C)C(=O)[C@H](OC(C)=O)C3=C(C)[C@@H](OC(=O)[C@H](O)[C@@H](NC(=O)OC(C)(C)C)c4ccccc4)C[C@@](O)([C@@H](OC(=O)c4ccccc4)[C@@H]2[C@]2(OC(C)=O)CO[C@H]12)C3(C)C [Compound 24, 3'-NH-Boc-7-deoxy-6b-thiomethylpaclitaxel] | 0.2 nM | 1.2 LCK | – | – | – |
| CS[C@@H]1C[C@@]2(C)C(=O)[C@H](OC(C)=O)C3=C(C)[C@@H](OC(=O)[C@H](O)[C@@H](NC(=O)c4ccccc4)c4ccccc4)C[C@@](O)([C@@H](OC(=O)c4ccccc4)[C@@H]2[C@]2(OC(C)=O)CO[C@H]12)C3(C)C [Compound 9, 7-deoxy-6β-thiomethylpaclitaxel] | 1.1 nM | 1.1 LCK | – | – | – |
| CC(=O)O[C@H]1C(=O)[C@]2(C)C[C@@H]([S+](C)[O-])[C@H]3OC[C@@]3(OC(C)=O)[C@H]2[C@H](OC(=O)c2ccccc2)[C@]2(O)C[C@H](OC(=O)[C@H](O)[C@@H](NC(=O)c3ccccc3)c3ccccc3)C(C)=C1C2(C)C (single isomer, unassigned) [Compound 19a, 7-deoxy-6β-methyl sulfoxide-paclitaxel] | – | – | – | – | > 111 nM |
| CC(=O)O[C@H]1C(=O)[C@]2(C)C[C@@H](SCc3ccccc3)[C@H]3OC[C@@]3(OC(C)=O)[C@H]2[C@H](OC(=O)c2ccccc2)[C@]2(O)C[C@H](OC(=O)[C@H](O)[C@@H](NC(=O)c3ccccc3)c3ccccc3)C(C)=C1C2(C)C [Compound 32, 6-b-thiobenzyl-7-deoxypaclitaxel] | 5.27 nM | – | – | – | – |
| CC(=O)O[C@H]1C(=O)[C@]2(C)C[C@@H](SCC(N)=O)[C@H]3OC[C@@]3(OC(C)=O)[C@H]2[C@H](OC(=O)c2ccccc2)[C@]2(O)C[C@H](OC(=O)[C@H](O)[C@@H](NC(=O)c3ccccc3)c3ccccc3)C(C)=C1C2(C)C [Compound 44, 7-deoxy-6b-thioacetamidepaclitaxel] | 11 nM | 0 LCK | – | – | – |
| CC(=O)O[C@H]1C(=O)[C@]2(C)C[C@@H](SCC(=O)O)[C@H]3OC[C@@]3(OC(C)=O)[C@H]2[C@H](OC(=O)c2ccccc2)[C@]2(O)C[C@H](OC(=O)[C@H](O)[C@@H](NC(=O)c3ccccc3)c3ccccc3)C(C)=C1C2(C)C [Compound 55] | – | – | > 108 nM | 107% | – |
| CSCS[C@@H]1C[C@@]2(C)C(=O)[C@H](OC(C)=O)C3=C(C)[C@@H](OC(=O)[C@H](O)[C@@H](NC(=O)c4ccccc4)c4ccccc4)C[C@@](O)([C@@H](OC(=O)c4ccccc4)[C@@H]2[C@]2(OC(C)=O)CO[C@H]12)C3(C)C [Compound 46, 6-b-methylthiomethylthio ether-7-deoxy paclitaxel] | 3.5 nM | 0 LCK | – | – | – |
| CC(=O)O[C@H]1C(=O)[C@]2(C)C[C@@H](SC(C)=O)[C@H]3OC[C@@]3(OC(C)=O)[C@H]2[C@H](OC(=O)c2ccccc2)[C@]2(O)C[C@H](OC(=O)[C@H](O)[C@@H](NC(=O)c3ccccc3)c3ccccc3)C(C)=C1C2(C)C [Compound 11, 7-deoxy-6β-thioacetoxypaclitaxel] | 1.84 nM | 0.5 LCK | – | – | – |
| COCS[C@@H]1C[C@@]2(C)C(=O)[C@H](OC(C)=O)C3=C(C)[C@@H](OC(=O)[C@H](O)[C@@H](NC(=O)c4ccccc4)c4ccccc4)C[C@@](O)([C@@H](OC(=O)c4ccccc4)[C@@H]2[C@]2(OC(C)=O)CO[C@H]12)C3(C)C [Compound 48] | 1.9 nM | 0.2 LCK | – | – | – |
| CC(=O)O[C@H]1C(=O)[C@]2(C)C[C@@H](Sc3cccs3)[C@H]3OC[C@@]3(OC(C)=O)[C@H]2[C@H](OC(=O)c2ccccc2)[C@]2(O)C[C@H](OC(=O)[C@H](O)[C@@H](NC(=O)c3ccccc3)c3ccccc3)C(C)=C1C2(C)C [Compound 54, 6-b-thio-(2-thienyl)-7-deoxypaclitaxel] | 1.1 nM | – | – | 148% | – |
